BindingDB's records for doi:10.1074/jbc.M113.510743 (Max Planck Institute of Biophysics, 2014)

Target: T1, APC family lysine-specific permease (Salmonella typhimurium (strain LT2 / SGSC1412 / ATCC 700720), UniProt Q8ZNK9)
T1 sequence (Q8ZNK9 whole entry): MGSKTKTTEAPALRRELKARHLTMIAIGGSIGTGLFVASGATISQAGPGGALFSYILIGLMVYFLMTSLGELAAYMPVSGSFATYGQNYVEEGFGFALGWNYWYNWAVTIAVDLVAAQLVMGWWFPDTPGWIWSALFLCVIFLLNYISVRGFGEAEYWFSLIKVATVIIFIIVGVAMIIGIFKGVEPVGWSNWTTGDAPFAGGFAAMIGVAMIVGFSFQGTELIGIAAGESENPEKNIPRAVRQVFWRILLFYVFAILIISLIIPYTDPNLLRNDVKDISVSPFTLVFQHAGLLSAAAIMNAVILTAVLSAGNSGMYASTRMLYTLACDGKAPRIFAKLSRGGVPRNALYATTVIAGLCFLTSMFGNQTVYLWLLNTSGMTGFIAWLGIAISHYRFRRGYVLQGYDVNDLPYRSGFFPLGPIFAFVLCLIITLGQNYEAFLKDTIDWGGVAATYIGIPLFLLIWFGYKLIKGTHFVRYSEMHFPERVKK
Test: Isothermal Titration Calorimetry (ITC)
Settings: pH 5.9; 20 °C
Procedure: ITC measurements were carried out at 20 °C with a VP-ITC calorimeter (GE Healthcare, MicroCal, Inc.) consisting of a 1.45-ml reaction cell. STM2200 in 20 mM MES-NaOH, 150 mM NaCl, 0.025% (w/v) β-DDM, pH 5.9 at concentrations ranging between 15 and 30 μM was titrated with ligands under conditions where the sum of the ionic strengths of ligand and NaCl was always 150 mM. After an initial 4-μl injection, all subsequent ligand additions consisted of 5 μl every 240-300 s. Stirring was at 307 rpm.

Question: With NCCCC[C@@H](N)C(=O)O [(2R)-2,6-diaminohexanoic acid] as the compound, how does the Kd read?
Answer: 1800 µM

Question: How did the Kd turn out when NCCCC[C@H](N)C(=O)O [(2S)-2,6-diaminohexanoic acid] was run?
Answer: 40 µM
